Test system: wild type C57BL6 mice
Experiment: Prepulse inhibition (PPI) of the acoustic startle response, control experiment
Assay type: in vivo
Conditions: wild type C57BL6 mice injected with MK-801 1 mg/kg; same PPI protocol; data not shown
Protocol: Prepulse inhibition (PPI) of the acoustic startle response. Prepulse inhibition (PPI) of the acoustic startle response was measured as described previously with some minor modifications (E. S. Emamian et al., 2004b). Adult homozygous mutant mice and their wild-type littermates were housed individually for 2 weeks prior to testing. Testing was conducted in a SR-Lab system (San Diego Instruments). Response amplitude was calculated as the maximum response level occurred during the 100 ms recording. Because animals can habituate to the prepulse, and to the startle stimulus, the number of trials was kept to minimum. Immediately after being placed in the chamber, the animal was allowed to acclimate for 5 min which background noise (86 dB) continually present. The animal then received 10 sets of the following 5 types of trials, distributed pseudo-randomly, and separated by 15 sec inter-trial intervals: Trial 1: 40 ms, 120 dB noise burst alone; Trial 2-4: 120 dB startle stimuli preceded 100 ms by one of the three 20 ms prepulses: 90 dB, 94 dB or 98 dB; Trial 5: no-stimulus/background noise alone (86 dB). […] Data was analyzed using ANOVA with repeated measures.

C[C@]12N[C@H](Cc3ccccc31)c1ccccc12 [MK-801] was tested, and the “Prepulse inhibition (PPI) of the acoustic startle response” value was “significant decrease in PPI”.
